Measurements published in patent US11167006B2 (Shanghai Tianci Life Science Development Co., Ltd., priority 2016, dated 2021).
“Also recorded” adds a separate entry of the source. Square brackets hold non-standard residues; d marks the D form. Peptide text beside a SMILES is read from it. NMeF = CN[C@@H](Cc1ccccc1)C(=O)O

How the values were obtained:
[1] = system: visceral pain induced by intraperitoneal injection of acetic acid solution in mice; assay: Acetic acid writhing visceral pain model; type: in vivo, mouse
Description: The mice were placed in a transparent polymethyl methacry late box (20×20×30 cm) and adapted to the environment for 10-15 min; after the adaptation, compound 9 was administered intrathecally, intraperitoneally or subcutaneously to the mice. After 5 min, the mice were intraperitoneally injected with 10 ml/kg of 0.6% acetic acid solution, 5 min. after the intraperitoneal injection of acetic acid solution, the writhing response of the mice was recorded for 10 min. The mice developed characteristic reactions such as twisting of the trunk, concave in the abdomen, elevation of the buttocks and extension of the hind limbs, which were recorded as a writhing reaction.
The experimental data was expressed by MPE (maximum possible effect), MPE (%)=100×[(the number of writhing bodies in the physiological saline group− the number of writhing bodies in the drug group)/the number of writhing bodies in the physiological saline group]. The relevant MPE data were expressed as mean±standard error (Means±S.E.M.), the data for differences between groups treated with different drug concentrations were analyzed by one-way ANOVA (Bonferroni test in one-way ANOVA) for statistics and analysis, ***P<0.001 represents that there was a significant difference between the MPE value of the drug-treated group and that of the saline group.

body temperature of mice = assay: Body temperature of mice (rectal temperature); type: in vivo; conditions: mouse, intrathecal; doses 100, 300, 500 pmol
Description: Mice were fixed in the manner described in Rosow et al. (1980). The ambient temperature was controlled at 21±0.5° C. and the experiment was carried out between 10 am and 2 pm. A temperature sensor attached to the biofunctional test BL-420F system was inserted into the rectum of the mouse in a depth of 2.5 cm to record the rectal temperature. The body temperatures before the intrathecal administration and at 10, 20, 30, 40, 50 and 60 minutes after administration were recorded.
The experiment results of regulation on the mouse body temperature were expressed as the difference between the basal body temperature and the body temperature after administration. The relevant data were expressed as mean+standard error (Means±S.E.M.). Differences between groups treated with different drug concentrations were analyzed by one-way ANOVA (Bonfenoni test in one-way ANOVA) for data statistics and analysis.

mice = assay: Conditional position preference test (CPP); type: in vivo, mouse; conditions: subcutaneous 10 mg/kg
Description: The conditional position preference experimental device is a closed device (45×20×20 cm) assembled from transparent plexiglass plates. Two 20×20×20 cm conditional preference boxes are located at both ends of the device, with a small compartment 5×20×20 cm having a passage (5×5×5 cm) connected in the middle. On the first day of the experiment, the passage was kept open, the mice was placed into the device for 15 min, and the mice that had been explored for more than 9 min in any of the preference boxes were excluded. […] On day 5, the passage was kept opened again to ensure that the mice were free to enter into the two preference boxes, and the time that the mice stayed in the drug matching preference box within 15 minutes of the total time was recorded.
The experimental relevant data were expressed as mean±standard error (Means±S.E.M.), and the conditional position preference score represents the time spent on the drug matching preference box on day 5 of each mouse minus the time on the first day in this preference box. Differences between groups treated with different drugs in CPP trials were analyzed by one-way ANOVA (Tukey HSD test in one-way ANOVA) for data statistics and analysis.

[2] = system: blood pressure of Wistar male rats; assay: Blood pressure in anesthetized rats; type: in vivo; conditions: rat, intrathecal; doses 1, 3, 10, 30 nmol
Description: Wistar male rats weighing 200-250 g. After urethane (1.3 g/kg) anesthesia, the trachea was cut to prevent suffocation. The femoral was isolated and a PE-10 artery cannula was inserted in an insertion depth of approximately 2 cm. The arterial cannula was connected to a pressure transducer PT-100, and the PT-100 was connected to a biofunctional experiment BL-420F system to record mean arterial pressure and pulsatile arterial pressure. An additional PE-10 was inserted from the lumbar vertebra L4-L5 and inserted 3 cm along the subarachnoid space up to the spine T12-L1 for intrathecal administration. After the surgery, the rats were allowed to stabilize for 30 min. Then, intrathecal administration of physiological saline or different doses of the drug, the dose of the drug was from small to large, and each dose interval was more than 40 min. Changes in blood pressure of the rats after administration were recorded.
The experimental results of cardiovascular regulation in rats were expressed as changes in blood pressure, and the relevant data were expressed as mean±standard error (Means±S.E.M.), Differences between groups treated with different drug concentrations were analyzed by one-way ANOVA (Bonferroni test in one-way ANOVA) for data statistics and analysis.

[3] = system: inflammatory pain in mice; assay: Inflammatory pain model (Carrageenan or CFA); type: in vivo, mouse
Description: Inflammatory pain in mice was measured using a hot stinging apparatus and an electronic Von Frey tenderness instrument, and the basal pain threshold of normal mice was firstly determined. Then 20 μl of 2% Carrageenan solution or CFA solution was injected subcutaneously into the mouse paw. The thermal and mechanical pain sensitivity value values of the injected paw in mice were tested after 24 hours (Carrageenan) or 4 days (CFA), and then compound 9 was administered into lateral ventricle, intrathecally or subcutaneously, and the pain threshold at different time points after administration were recorded.
(§1) The experimental data were expressed as mean±standard error (Means±S.E.M.), and the data for differences between groups treated with different drug concentrations were analyzed by one-way ANOVA (Bonferroni test in one-way ANOVA) for statistics and analysis, ***P<0.001 represents that there was a significant difference between the pain threshold value of the drug-treated group and that of the saline group.

[4] = system: movement activity of mice; assay: Movement activity, open field experiment; type: in vivo, mouse; conditions: subcutaneous 10 mg/kg
Description: The movement activity of the mice was tested by open field experiments. The experimental device is consisted of a 50×50×50 cm topless black plexiglass box and a movement monitoring system. The experiment was carried out in a soundproof environment with an indoor temperature being controlled at 22±1° C. After the experiment was started, the mice were first recorded for free movement within 30 minutes, and then compound 9 or morphine was administered subcutaneously, the movement of the mice was detected for another 150 minutes. Before the experiment for each mouse was started, the whole box was wiped with alcohol as a whole to exclude the residual odor of the previous mouse from affecting the accuracy of the data.
as §1, with “drugs” for “drug concentrations”, “movement activity” for “pain threshold value”

## C[C@@H](NC(=O)[C@@H](N)Cc1ccc(O)cc1)C(=O)NCC(=O)N(C)[C@@H](Cc1ccccc1)C(=O)NCC(=O)N1CCC[C@H]1C(=O)N[C@@H](CCC(N)=O)C(=O)N[C@@H](CCCNC(=N)N)C(=O)N[C@@H](Cc1ccccc1)C(N)=O [Compound 9, Tyr-D-Ala-Gly-NMe-Phe-Gly-Pro-Gln-Arg-Phe-NH2] (H-Y[dA]G[NMeF]GPQRF-NH2)
[1]; intraperitoneal (i.p.)
  ED50 value (95% confidence interval): 0.721 (0.594 to 0.875) mg/kg
[1]; intrathecal (i.t.)
  ED50 value (95% confidence interval): 0.657 (0.595 to 0.727) pmol
[1]; subcutaneous (s.c.)
  ED50 value (95% confidence interval): 0.789 (0.702 to 0.887) mg/kg
Body temperature of mice
  dose producing a significant effect of lowering body temperature: 500 pmol
mice
  conditional positional preference: produced significant conditional positional preference; also recorded: lower degree of preference than morphine
[2]
  dose producing a significant blood pressure-lowering effect: more than 1 nmol
[3]; intrathecal (FIG. 15: carrageenan-induced)
  analgesic ED50 value, inflammatory pain: 2.98 (2.50-3.54) pmol
[3]; lateral ventricle (FIG. 14: CFA-induced)
  analgesic ED50 value, inflammatory pain: 5.20 (2.06-13.10) pmol
[3]; subcutaneous (FIG. 16: carrageenan-induced)
  analgesic ED50 value, inflammatory pain: 3.24 (2.81-3.74) mg/kg
[4]
  total distance of movement: 71.39 m
